pIC50: −log10 of the molar value. Bridge positions count the residues as written; N and C are the ends. Square brackets hold non-standard residues; d marks the D form. Peptide text beside a SMILES is read from it. Nle = CCCC[C@H](N)C(=O)O
Assays:
Kv1.6 = target: T1, Kv1.6 (Homo sapiens, UniProt P17658); test: cell-based; conditions: for IC50: CHO cells, whole-cell patch clamp, read-out: Potency IC50 (nM) Kv1.6; for Selectivity Kv1.6/Kv1.3: ratio IC50[Kv1.6]/IC50[Kv1.3]
T1 construct: expressed in transfected cells; host or cells: Chinese Hamster Ovary (CHO)

Rat whole blood = Rat whole blood (Rattus norvegicus, UniProt P15384)
[1] = system: Human peripheral blood mononuclear cells (PBMCs); test: IL-2 release from anti-CD3 stimulated human PBMCs (Example 4b); type: cell-based; conditions: geometric mean, at least 6 replicates, read-out: anti-CD3 PBMC/IL-2 IC50
Method: Human peripheral blood mononuclear cells (PBMCs) were used to assess the effects of Kv1.3 blockers on T-cell activation as determined by IL-2 release after stimulation with anti-CD3.
(§1) Human PBMCs were obtained from Precision for Medicine (Frederick, Md.). Cells from 5 donors were used. Plate-bound anti-CD3 was used to stimulate bulk T cells in the PBMC preparations. Briefly, 96-well plates were coated with anti-CD3 antibody for app. 16 hours at 5° C., using 50 μl of a 1 μg/ml anti-CD3 solution diluted in PBS. Thereafter the plates were washed twice.
Kv1.3 blockers were subsequently diluted in medium (RPMI 1640 with Glutamax-I containing, 10% v/v Fetal Bovine Serum, 1% v/v penicillin-streptomycin Solution) and added in a volume of 50 μl. The compounds indicated in Table 4b were used at concentrations ranging from […] to 1000 nM (half log dilutions, starting concentrations varying).
(§2) Finally, 50.000 PBMCs in the same medium were added to each well in a volume of 50 μl, giving a final volume of 100 μl per well. The plates were incubated for 20-24 hours in a 37° C./5% CO2 incubator. After centrifugation of the plates, 25 μl supernatant was transferred to IL-2 detection plates (MSD Human IL-2 Tissue Culture Kit, cat #K151AHB-2) and IL-2 was measures as described by the manufacturer (Meso Scale Discovery, Rockville, Md., USA).
Results are shown in Table 4b as geometric mean of IC50 values obtained from anti-CD3 stimulated human PBMC assays. All values derive from at least 6 replicates.

Kv1.1 = target: T2, Kv1.1 (Homo sapiens, UniProt Q09470); test: cell-based; conditions: for IC50: CHO cells, whole-cell patch clamp, read-out: Potency IC50 (nM) Kv1.1; for Selectivity Kv1.1/Kv1.3: ratio IC50[Kv1.1]/IC50[Kv1.3]
T2 construct: expressed in transfected cells; host or cells: Chinese Hamster Ovary (CHO)

Kv1.2 = target: T3, Kv1.2 (Homo sapiens, UniProt P16389); test: cell-based; conditions: for IC50: CHO cells, whole-cell patch clamp, read-out: Potency IC50 (nM) Kv1.2
T3 construct: expressed in transfected cells; host or cells: Chinese Hamster Ovary (CHO)

[2] = target: T4, human Kv1.3 voltage-gated K+ channel (Homo sapiens, UniProt P22001); test: cell-based; conditions: inhibition of thallium flux, CHO-DUKX cells with human Kv1.3; read-out: IC50
T4 construct: host or cells: CHO-DUKX

Kv1.3 = target: T5, Kv1.3 (Homo sapiens, UniProt P22001); test: cell-based; conditions: CHO cells, whole-cell patch clamp; read-out: Potency IC50 (nM) Kv1.3
T5 construct: expressed in transfected cells; host or cells: Chinese Hamster Ovary (CHO)

[3] = system: Human peripheral blood mononuclear cells (PBMCs); test: IL-2 release from anti-CD3 stimulated human PBMCs (Example 4a); type: cell-based; conditions: geometric mean, at least 4 replicates, read-out: anti-CD3 PBMC/IL-2 IC50
Method: Human peripheral blood mononuclear cells (PBMCs) were used to assess the effects of Kv1.3 blockers on T-cell activation as determined by IL-2 (cytokine) release after stimulation with anti-CD3.
as §1, with “2 hrs” for “app. 16 hours”, “37°” for “5°”, “μL” for “μl”, “0.5 μg/mL” for “1 μg/ml”, “1×PBS.” for “PBS.”
as §2, with “1×10^5” for “50.000”, “PBMCs” for “PBMCs in the same medium”, “100 μL,” for “50 μl,”, “200 μL” for “100 μl”
Results are shown in Table 4a as geometric mean of IC50 values obtained from anti-CD3 stimulated human PBMC assays. All values derive from at least 4 replicates.

T4 sequence (P22001 whole entry): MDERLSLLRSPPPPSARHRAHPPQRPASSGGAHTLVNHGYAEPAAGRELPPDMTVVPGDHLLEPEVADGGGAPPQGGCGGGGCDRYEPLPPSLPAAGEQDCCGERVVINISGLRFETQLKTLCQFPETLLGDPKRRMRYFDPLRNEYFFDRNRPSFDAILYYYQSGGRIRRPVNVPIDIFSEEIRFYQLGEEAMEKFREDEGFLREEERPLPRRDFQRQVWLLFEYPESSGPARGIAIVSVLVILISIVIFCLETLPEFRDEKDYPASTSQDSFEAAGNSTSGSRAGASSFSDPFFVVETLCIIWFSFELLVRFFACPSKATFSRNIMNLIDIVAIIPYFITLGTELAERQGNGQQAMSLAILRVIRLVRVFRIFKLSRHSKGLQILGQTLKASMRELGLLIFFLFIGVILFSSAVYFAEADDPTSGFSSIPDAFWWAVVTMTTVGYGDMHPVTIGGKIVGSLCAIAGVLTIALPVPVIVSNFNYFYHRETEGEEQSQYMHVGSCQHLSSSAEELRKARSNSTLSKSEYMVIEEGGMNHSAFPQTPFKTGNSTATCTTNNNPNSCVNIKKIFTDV
T5 sequence (P22001 whole entry): as above
Rat whole blood, sequence (P15384 whole entry): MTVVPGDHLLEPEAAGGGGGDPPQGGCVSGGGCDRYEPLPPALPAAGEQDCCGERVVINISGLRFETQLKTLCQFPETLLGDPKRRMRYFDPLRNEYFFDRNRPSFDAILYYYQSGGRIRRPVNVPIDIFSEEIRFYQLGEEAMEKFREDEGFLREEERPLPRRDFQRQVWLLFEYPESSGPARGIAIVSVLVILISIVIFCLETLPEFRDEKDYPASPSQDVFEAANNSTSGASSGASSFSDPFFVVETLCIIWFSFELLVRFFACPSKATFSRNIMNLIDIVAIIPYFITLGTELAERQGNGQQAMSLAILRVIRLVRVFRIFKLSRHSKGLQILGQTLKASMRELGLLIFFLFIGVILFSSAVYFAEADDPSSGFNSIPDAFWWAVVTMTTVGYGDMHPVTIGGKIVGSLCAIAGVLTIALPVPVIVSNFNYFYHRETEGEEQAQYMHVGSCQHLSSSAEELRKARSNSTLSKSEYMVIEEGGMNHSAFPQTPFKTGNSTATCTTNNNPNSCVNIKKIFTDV
T1 sequence (P17658 whole entry): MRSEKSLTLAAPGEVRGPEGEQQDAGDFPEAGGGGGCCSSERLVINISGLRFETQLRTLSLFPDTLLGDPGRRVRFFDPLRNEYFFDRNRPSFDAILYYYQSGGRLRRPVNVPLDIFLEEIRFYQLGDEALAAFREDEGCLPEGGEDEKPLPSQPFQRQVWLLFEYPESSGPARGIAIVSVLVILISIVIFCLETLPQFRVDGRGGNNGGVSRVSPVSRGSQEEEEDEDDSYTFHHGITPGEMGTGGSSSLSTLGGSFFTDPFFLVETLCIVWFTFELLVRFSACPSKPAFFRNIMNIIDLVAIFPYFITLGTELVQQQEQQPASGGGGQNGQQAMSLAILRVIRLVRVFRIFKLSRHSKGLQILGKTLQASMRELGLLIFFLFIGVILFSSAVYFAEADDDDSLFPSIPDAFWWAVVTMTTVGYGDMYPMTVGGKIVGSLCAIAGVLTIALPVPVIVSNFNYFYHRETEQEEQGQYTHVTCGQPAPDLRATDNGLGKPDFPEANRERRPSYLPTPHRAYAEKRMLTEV
T3 sequence (P16389 whole entry): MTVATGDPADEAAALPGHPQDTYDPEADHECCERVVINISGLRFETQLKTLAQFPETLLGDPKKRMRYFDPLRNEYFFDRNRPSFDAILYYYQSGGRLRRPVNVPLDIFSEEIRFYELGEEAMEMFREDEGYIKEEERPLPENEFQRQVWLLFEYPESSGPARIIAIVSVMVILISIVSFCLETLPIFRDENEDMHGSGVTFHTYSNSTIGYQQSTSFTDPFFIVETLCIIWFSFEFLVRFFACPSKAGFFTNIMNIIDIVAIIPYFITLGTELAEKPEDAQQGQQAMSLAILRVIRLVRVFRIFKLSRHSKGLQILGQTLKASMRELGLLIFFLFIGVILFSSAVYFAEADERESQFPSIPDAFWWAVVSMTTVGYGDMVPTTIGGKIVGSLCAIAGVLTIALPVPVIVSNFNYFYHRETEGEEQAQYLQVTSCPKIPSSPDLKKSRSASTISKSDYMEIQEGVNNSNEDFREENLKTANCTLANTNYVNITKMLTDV
T2 sequence (Q09470 whole entry): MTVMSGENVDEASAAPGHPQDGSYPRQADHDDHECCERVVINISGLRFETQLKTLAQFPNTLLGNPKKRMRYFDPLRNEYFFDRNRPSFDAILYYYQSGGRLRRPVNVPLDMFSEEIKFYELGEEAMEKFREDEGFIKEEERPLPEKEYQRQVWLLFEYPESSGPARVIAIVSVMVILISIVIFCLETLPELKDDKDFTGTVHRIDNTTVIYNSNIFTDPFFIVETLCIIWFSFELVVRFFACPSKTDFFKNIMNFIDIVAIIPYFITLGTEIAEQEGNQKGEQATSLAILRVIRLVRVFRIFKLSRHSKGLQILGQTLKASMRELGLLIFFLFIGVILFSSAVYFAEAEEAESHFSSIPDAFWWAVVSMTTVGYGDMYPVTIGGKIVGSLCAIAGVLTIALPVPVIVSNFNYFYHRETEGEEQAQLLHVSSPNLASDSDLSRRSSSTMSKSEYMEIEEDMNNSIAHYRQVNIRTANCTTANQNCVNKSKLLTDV

Row | Compound | IC50 (Kv1.6) | Selectivity Kv1.6/Kv1.3 (Kv1.6) | pIC50 (Rat whole blood) | pIC50 [1] | IC50 (Kv1.1) | Selectivity Kv1.1/Kv1.3 (Kv1.1) | IC50 (Kv1.2) | pIC50 [2] | IC50 (Kv1.3) | Selectivity Kv1.2/Kv1.3 (Kv1.2; ratio IC50[Kv1.2]/IC50[Kv1.3]) | pIC50 [3]
1 | CC[C@H](C)[C@@H]1NC(=O)[C@H](C)NC(=O)[C@H](CCCCN)NC(=O)[C@H](CC(C)C)NC(=O)[C@@H]2CSSC[C@@H](C(=O)N[C@@H](Cc3ccc(O)cc3)C(=O)N3CCC[C@H]3C(=O)N[C@@H](CCCNC(=N)N)C(=O)O)NC(=O)[C@H](CCCCN)NC(=O)[C@@H]3CSSC[C@H](NC(=O)[C@H](CCC(=O)O)NC(=O)[C@H](C(C)C)NC(=O)[C@H](CO)NC(=O)[C@H](C)NC(=O)[C@H](CO)NC(=O)[C@@H](NC(=O)[C@H](CCCNC(=N)N)NC(=O)[C@H](CCSC)NC(=O)[C@H](CC(=O)O)NC(=O)[C@H](CCSC)NC(=O)[C@@H](N)CCC(N)=O)CSSC[C@H](NC(=O)[C@H](CCCCN)NC(=O)CNC(=O)[C@H](Cc4ccccc4)NC(=O)[C@H]([C@@H](C)CC)NC(=O)[C@H](CO)NC(=O)CNC1=O)C(=O)N[C@@H](CCSC)C(=O)N[C@@H](CC(N)=O)C(=O)N[C@@H](CCCCN)C(=O)N[C@@H](CCCCN)C(=O)N3)C(=O)N[C@@H](CCCCN)C(=O)N[C@@H](CCC(N)=O)C(=O)N[C@@H](CCCCN)C(=O)N2 [Compound 1] (H-QMDMRCSASVECKQKCLKAIGSIFGKCMNKKCKCYPR-OH; disulfide 6-27, 12-32, 16-34) | > 3000 nM | >7900 | ≥ 9.00 | 10.05 | > 3000 nM | >7900 | 518 nM | 9.62 | 0.38 nM |  | 
2 | CCCC[C@@H]1NC(=O)[C@@H]2CSSC[C@H](NC(=O)[C@H](CCCNC(=N)N)NC(=O)[C@H](CCCC)NC(=O)[C@H](CC(=O)O)NC(=O)[C@H](CCCC)NC(=O)[C@@H](N)CC(N)=O)C(=O)N[C@@H](CO)C(=O)N[C@@H](C)C(=O)N[C@@H](CO)C(=O)N[C@@H](C(C)C)C(=O)N[C@@H](CCC(=O)O)C(=O)N[C@H]3CSSC[C@H](NC(=O)[C@H](CCCCN)NC(=O)[C@H](CCCCN)NC(=O)[C@H](CC(N)=O)NC1=O)C(=O)N[C@@H](CCCCN)C(=O)N[C@H](C(=O)N[C@@H](Cc1ccc(O)cc1)C(=O)N1CCC[C@H]1C(=O)N[C@@H](CCCNC(=N)N)C(N)=O)CSSC[C@H](NC(=O)[C@H](CO)NC(=O)[C@H](CCC(N)=O)NC(=O)[C@H](CCCCN)NC3=O)C(=O)N[C@@H](CC(C)C)C(=O)N[C@@H](CCCCN)C(=O)N[C@@H](C)C(=O)N[C@@H]([C@@H](C)CC)C(=O)NCC(=O)N[C@@H](CO)C(=O)N[C@@H]([C@@H](C)CC)C(=O)N[C@@H](Cc1ccccc1)C(=O)NCC(=O)N[C@@H](CCCCN)C(=O)N2 [Compound 48] (H-N[Nle]D[Nle]RCSASVECKQSCLKAIGSIFGKC[Nle]NKKCKCYPR-NH2; disulfide 6-27, 12-32, 16-34) | > 3000 nM | >8200 | ≥ 9.00 | 10.15 | > 3000 nM | >8200 | > 3000 nM | 9.85 | 0.37 nM | >8200 | 
3 | CC[C@H](C)[C@@H]1NC(=O)[C@H](C)NC(=O)[C@H](CCCCN)NC(=O)[C@H](CC(C)C)NC(=O)[C@@H]2CSSC[C@@H](C(=O)N[C@@H](Cc3ccc(O)cc3)C(=O)N3CCC[C@H]3C(=O)N[C@@H](CCCNC(=N)N)C(N)=O)NC(=O)[C@H](CCCCN)NC(=O)[C@@H]3CSSC[C@H](NC(=O)[C@H](CCC(=O)O)NC(=O)[C@H](C(C)C)NC(=O)[C@H](CO)NC(=O)[C@H](C)NC(=O)[C@H](CO)NC(=O)[C@@H](NC(=O)[C@H](CCCNC(=N)N)NC(=O)[C@H](CCSC)NC(=O)[C@H](CC(=O)O)NC(=O)[C@H](CCSC)NC(=O)[C@@H](N)CC(N)=O)CSSC[C@H](NC(=O)[C@H](CCCCN)NC(=O)CNC(=O)[C@H](Cc4ccccc4)NC(=O)[C@H]([C@@H](C)CC)NC(=O)[C@H](CO)NC(=O)CNC1=O)C(=O)N[C@@H](CCSC)C(=O)N[C@@H](CC(N)=O)C(=O)N[C@@H](CCCCN)C(=O)N[C@@H](CCCCN)C(=O)N3)C(=O)N[C@@H](CCCCN)C(=O)N[C@@H](C(C)C)C(=O)N[C@@H](CCCCN)C(=O)N2 [Compound 17] (H-NMDMRCSASVECKVKCLKAIGSIFGKCMNKKCKCYPR-NH2; disulfide 6-27, 12-32, 16-34) | 912 nM |  | ≥ 9.00 |  | > 3000 nM | >7200 | 66 nM | 9.85 | 0.42 nM |  | 9.40
4 | H-NMDMRCSASVECKQKCLKAIGSIFGKCMNKKCKCYPRRRTA-NH2 (disulfide 6-27, 12-32, 16-34) [Compound 23] | 215 nM |  | ≥ 9.00 | 10.22 | 626 nM |  | 28 nM | 10.26 | 0.15 nM |  | 
5 | CC[C@H](C)[C@@H]1NC(=O)[C@H](C)NC(=O)[C@H](CCCCN)NC(=O)[C@H](CC(C)C)NC(=O)[C@@H]2CSSC[C@@H](C(=O)N[C@@H](Cc3ccc(O)cc3)C(=O)N3CCC[C@H]3C(=O)N[C@@H](CCCNC(=N)N)C(N)=O)NC(=O)[C@H](CCCCN)NC(=O)[C@@H]3CSSC[C@H](NC(=O)[C@H](CCC(=O)O)NC(=O)[C@H](C(C)C)NC(=O)[C@H](CO)NC(=O)[C@H](C)NC(=O)[C@H](CO)NC(=O)[C@@H](NC(=O)[C@H](CCCNC(=N)N)NC(=O)[C@H](CCSC)NC(=O)[C@H](CC(=O)O)NC(=O)[C@H](CCSC)NC(=O)[C@@H](N)CC(N)=O)CSSC[C@H](NC(=O)[C@H](CCCCN)NC(=O)CNC(=O)[C@H](Cc4ccccc4)NC(=O)[C@H](CCCNC(=N)N)NC(=O)[C@H](CO)NC(=O)CNC1=O)C(=O)N[C@@H](CCSC)C(=O)N[C@@H](CC(N)=O)C(=O)N[C@@H](CCCCN)C(=O)N[C@@H](CCCCN)C(=O)N3)C(=O)N[C@@H](CCCCN)C(=O)N[C@@H](CCC(N)=O)C(=O)N[C@@H](CCCCN)C(=O)N2 [Compound 35] (H-NMDMRCSASVECKQKCLKAIGSRFGKCMNKKCKCYPR-NH2; disulfide 6-27, 12-32, 16-34) | 192 nM |  |  |  | > 3000 nM | >15000 | 18 nM | 10.11 | 0.2 nM |  | 10.00
6 | CC[C@H](C)[C@@H]1NC(=O)[C@H](C)NC(=O)[C@H](CC(=O)O)NC(=O)[C@H](CC(C)C)NC(=O)[C@@H]2CSSC[C@@H](C(=O)N[C@@H](Cc3ccc(O)cc3)C(=O)N3CCC[C@H]3C(=O)N[C@@H](CCCNC(=N)N)C(N)=O)NC(=O)[C@H](CCCCN)NC(=O)[C@@H]3CSSC[C@H](NC(=O)[C@H](CCC(=O)O)NC(=O)[C@H](C(C)C)NC(=O)[C@H](CO)NC(=O)[C@H](C)NC(=O)[C@H](CO)NC(=O)[C@@H](NC(=O)[C@H](CCCNC(=N)N)NC(=O)[C@H](CCSC)NC(=O)[C@H](CC(=O)O)NC(=O)[C@H](CCSC)NC(=O)[C@@H](N)CC(N)=O)CSSC[C@H](NC(=O)[C@H](CCCCN)NC(=O)CNC(=O)[C@H](Cc4ccccc4)NC(=O)[C@H]([C@@H](C)CC)NC(=O)[C@H](CO)NC(=O)CNC1=O)C(=O)N[C@@H](CCSC)C(=O)N[C@@H](CC(N)=O)C(=O)N[C@@H](CCCCN)C(=O)N[C@@H](CCCCN)C(=O)N3)C(=O)N[C@@H](CCCCN)C(=O)N[C@@H](CCC(N)=O)C(=O)N[C@@H](CCCCN)C(=O)N2 [Compound 20] (H-NMDMRCSASVECKQKCLDAIGSIFGKCMNKKCKCYPR-NH2; disulfide 6-27, 12-32, 16-34) | 2530 nM |  |  |  | > 3000 nM | >14300 | 99 nM | 9.89 | 0.21 nM |  | 10.00

Source: patent US11780893B2, “Kv1.3 blockers” (Zealand Pharma A/S, priority 2019, dated 2023)
